{"source": "patent US11434492B2", "about": "“Ribosome-mediated incorporation of peptides and peptidomimetics” (Arizona Board of Regents on behalf of Arizona State …, priority 2015, dated 2022)", "key": {"[1]": {"tested_on": "modified ribosomes (23S rRNA modified)", "assay": "In vitro translation: suppression of UAG codon at position 10 of DHFR mRNA, S-30 systems having modified ribosomes", "assay_type": "biochemical, E. coli", "details": "for Suppression efficiency in different S-30 systems, having modified ribosomes (%): position 10 of E. coli DHFR, relative to wild-type DHFR = 100", "protocol": "Preparation of Aminoacyl-tRNACUAs. The activation of suppressor tRNACUAs was carried out as described previously.^4,5 Briefly, 100-μL reaction mixture of 100 mM Na Hepes, pH 7.5, contained 1.0 mM ATP, 15 mM MgCl2, 100 μg of suppressor tRNACUA-COH, 0.5 A260 unit of N-pentenoyl-protected aminoacyl-pdCpA, 15% DMSO, and 100 units of T4 RNA ligase. The reaction mixture was incubated at 37° C. for 1.5 h and quenched by the addition of 0.1 vol of 3 M NaOAc, pH 5.2. The N-protected aminoacylated tRNA was precipitated with 3 vol of cold ethanol. The efficiency of ligation was estimated by 8% polyarylamide-7 M urea gel electrophoresis (pH 5.0).\nThe N-pentenoyl-protected aminoacyl-tRNACUAs were deprotected by treatment with 5 mM aqueous […] at 25° C. for 15 min. The solution was centrifuged, and the supernatant was adjusted to 0.3 M NaOAc and treated with 3 vol of cold ethanol to precipitate the aminoacylated tRNA. The tRNA pellet was collected by centrifugation, washed with 70% aq EtOH, air dried and dissolved in 20 μL of RNase free water.\nPreparation of S-30 Extracts from Cells Having Modified Ribosomes. Aliquots (5-10 μL) from liquid stocks of E. coli BL-21 (DE-3) cells, harboring plasmids with a wild-type or modified rrnB gene, were placed on LB agar supplemented with 100 µg/mL of ampicillin and grown at 37° C. for 16-18 h. One colony was picked from each agar plate and transferred into 3 mL of LB medium supplemented with 100 μg/mL of ampicillin and 0.5 mM IPTG.\n(§1) In vitro Protein Translation. Protein translation reactions were carried out in 12-2000 μL of incubation mixture containing 0.4 μL/μL of S-30 system, 100 ng/μL of plasmid, 35 mM Tris acetate, pH 7.4, 190 mM potassium glutamate, 30 mM ammonium acetate, 2 mM DTT, 0.2 mg/mL total E. coli tRNA, 3.5% PEG 6000, 20 μg/mL folinic acid, 20 mM ATP and GTP, 5 mM CTP and UTP, 100 μM amino acids mixture, 0.5 μCi/μL of ^35S-methionine for analytical purposes only and 1 μg/mL rifampicin. In the case of plasmids having a gene with a TAG codon, a suppressor tRNA was added to a concentration of 0.8 μg/μL. Reactions were carried out at 37° C. for 1 h (for 12 μL reaction mixtures) to 1.5 h (for 2000 μL reaction mixtures) and terminated by chilling on ice. Aliquots from in vitro translation mixtures were analyzed by SDS-PAGE followed by quantification of the radioactive bands by phosphorimager analysis.\nIncorporation of Dipeptides 2, 3 and 4 into DHFR Using the Modified Ribosomes. Initially, glycylphenylalanine (2) was chosen to screen the selected modified ribosomes for their ability to incorporate a dipeptide into DHFR. It was anticipated that minimal steric hindrance and more flexibility at the N-terminus of the dipeptide (a glycine residue) would enable optimal positioning of the amine for a nucleophilic attack in the PTC of the modified ribosomes. A modified DHFR construct, having a TAG codon in position 10 (pETDH10 plasmid) was used for the incorporation of glycylphenylalanine.\nThe suppression efficiencies were expressed relative to the wild-type DHFR synthesis. As a negative control, wild-type DHFR synthesis in the presence of nonacylated-tRNACUA was measured for each experiment. The amounts of DHFR produced were quantified with a phosphoimager, which monitored the incorporation of ^35S-methionine into DHFR. Using glycylphenylalanyl-tRNACUA, S-30 preparations having the modified ribosomes from clone groups 1, 2, 3 and 9 produced full length DHFR in ˜9% yields relative to the wild-type DHFR synthesis (Table 3). The modified ribosomes from clone groups 4-8 incorporated glycylphenylalanine (2) with low yields (˜2-4%). For dipeptide 2, best incorporation yields (up to 12%) were obtained by S-30 system having modified ribosomes from clone group 9 (2057AGUGAGA2063 and 2502AUCCGA2507)."}, "[2]": {"tested_on": "wild-type ribosomes", "assay": "In vitro translation: suppression of UAG codon at position 10 of DHFR mRNA, S-30 preparation having wild-type ribosomes", "assay_type": "biochemical, E. coli", "details": "compared to wild-type DHFR synthesis", "protocol": "as §1\nIncorporation of Glycylphenylalanine (2) Using the Wild-Type Ribosome. The wild-type ribosomes synthesize polypeptide chains by incorporating one α-L-amino acid at a time via one monoacylated tRNA for each corresponding codon in the mRNA transcript.^6 Ribosome mediated sequential incorporation of two amino acids for one codon using bisacylated tRNAs has not been reported to date. […]"}, "[3]": {"tested_on": "modified ribosomes from clone 010326R6", "assay": "In vitro translation: suppression of TAG codon at position 66 of GFP (pETGFP66), S-30 from clone 010326R6", "assay_type": "biochemical, Escherichia coli", "protocol": "as §1\nThe free amino acids both have λex in the range 296-302 nm but the λem of 7 is somewhat red-shifted compared to that of 6. […] As a negative control, wild-type GFP synthesis from the modified mRNA in the presence of nonacylated tRNACUA was measured for each experiment. The amounts of GFP produced were quantified with a phosphoimager, which monitored the incorporation of ^35S-methionine into proteins. […]"}, "[4]": {"tested_on": "E. coli clones having mutations in two regions of the PTC in the 23S rRNA (modified ribosomes)", "assay": "Inhibition of cell growth by dipeptidyl-puromycin aminonucleoside 1 (selection of modified ribosomes)", "assay_type": "cell-based", "details": "100 μg/mL 1", "protocol": "Selection of Modified Ribosomes using Dipeptidyl-puromycin Aminonucleoside The selection experiments were carried on in a fashion similar to that described previously. (1) Briefly, library from 419 clones, having mutations in two regions of the PTC in the 23S rRNA (2057-2063 and 2496-2501 or 2502-2507) and organized in five 96 well plates (“master plates”), were used for selection of variants with modified ribosome. Three new plates were prepared for each “master plate” by transferring 2 μL of culture from each well of the master plate to the corresponding well of new plate and 98 μL assay solution was added to each well.\nA solution without any puromycin derivative was used for control plate. All plates were incubated at 37° C. for 16-18 h in a thermostated shaker, and extent of cell growth was estimated by measuring the optical density at 600 nm. Inhibition of cell growth by 1 was estimated as described in previously. Clones with inhibition value more than 50% were taken for verification. […] Plates were incubated at 37° C. for 16-18 h in a thermostated shaker, extent of cell growth was estimated by measuring the optical density at 600 nm and IC50 data was calculated for each culture.\nIt was anticipated that the ribosomes of those clones which show sensitivity for 1 would be more likely to accommodate dipeptides or dipeptidomimetics in the PTC during peptide synthesis. […] Plasmids from these clones were isolated and sequenced."}}, "note": "“And” between values parts separate entries of the source, which are not always exact repeats. Identical values can stand only once. Peptide text beside a SMILES is read from it."}
{"compound": "NCC(=O)N[C@@H](Cc1ccccc1)C(=O)O", "note": "[dipeptide 2, glycylphenylalanine] (H-Gly-Phe-OH)", "values": [{"measurement": "Suppression efficiency in different S-30 systems, having modified ribosomes (%)", "setting": "[1]; clone group 1", "value": "~9% and 8.4 ± 1.6%"}, {"measurement": "Suppression efficiency in different S-30 systems, having modified ribosomes (%)", "setting": "[1]; clone group 2", "value": "~8% and 9.5 ± 0.5%"}, {"measurement": "Suppression efficiency in different S-30 systems, having modified ribosomes (%)", "setting": "[1]; clone group 3", "value": "9% and 8.6 ± 1.5%"}, {"measurement": "Suppression efficiency in different S-30 systems, having modified ribosomes (%)", "setting": "[1]; clone group 4", "value": "3.1 ± 0.2", "unit": "%"}, {"measurement": "Suppression efficiency in different S-30 systems, having modified ribosomes (%)", "setting": "[1]; clone group 5", "value": "4.5 ± 0.7", "unit": "%"}, {"measurement": "Suppression efficiency in different S-30 systems, having modified ribosomes (%)", "setting": "[1]; clone group 6", "value": 3.5, "unit": "%"}, {"measurement": "Suppression efficiency in different S-30 systems, having modified ribosomes (%)", "setting": "[1]; clone group 7", "value": "2.1 ± 0.1", "unit": "%"}, {"measurement": "Suppression efficiency in different S-30 systems, having modified ribosomes (%)", "setting": "[1]; clone group 8", "value": 2.2, "unit": "%"}, {"measurement": "full length DHFR yield relative to the wild-type DHFR synthesis", "setting": "[1]; clone groups 1, 2, 3 and 9, position 10 of DHFR", "value": "~9", "unit": "%"}, {"measurement": "incorporation yield relative to the wild-type DHFR synthesis", "setting": "[1]; clone groups 4-8, position 10 of DHFR", "value": "2-4%"}, {"measurement": "suppression efficiency", "setting": "[2]", "value": "~2", "unit": "%"}]}
{"compound": "N[C@@H](Cc1ccccc1)C(=O)NCC(=O)O", "note": "[dipeptide 3, phenylalanylglycine] (H-Phe-Gly-OH)", "values": [{"measurement": "Suppression efficiency in different S-30 systems, having modified ribosomes (%)", "setting": "[1]; clone group 1", "value": "~14% and 13.9 ± 1.7%"}, {"measurement": "Suppression efficiency in different S-30 systems, having modified ribosomes (%)", "setting": "[1]; clone group 2", "value": "~12% and 10.6 ± 0.5%"}, {"measurement": "Suppression efficiency in different S-30 systems, having modified ribosomes (%)", "setting": "[1]; clone group 3", "value": "10% and 12.7 ± 2.5%"}, {"measurement": "Suppression efficiency in different S-30 systems, having modified ribosomes (%)", "setting": "[1]; clone group 9", "value": "~13% and 13.3 ± 2.5%"}]}
{"compound": "COc1ccc(-c2sc(CN)nc2C(=O)O)cc1", "note": "[dipeptidomimetic 7]", "values": [{"measurement": "suppression yield (full length GFP) relative to wild-type GFP synthesis", "setting": "[3]", "value": "~3.5", "unit": "%"}]}
{"compound": "COc1ccc(C[C@H](N)C(=O)NCC(=O)N[C@H]2[C@@H](O)[C@H](n3cnc4c(N(C)C)ncnc43)O[C@@H]2CO)cc1", "note": "[puromycin derivative 1, 9-[3″-Deoxy-3″-(O-methyl-(S)-tyrosylglycyl)-β-D-ribofuranosyl]-6-(N,N″ dimethylamino)purine]", "values": [{"measurement": "Inhibition by Puromycin Derivative 1 (%)", "setting": "[4]; Wild-type ribosomes", "value": "<1", "unit": "%"}, {"measurement": "Inhibition by Puromycin Derivative 1 (%)", "setting": "[4]; clone 010309R3 (clone group 1)", "value": 63.2, "unit": "%"}, {"measurement": "Inhibition by Puromycin Derivative 1 (%)", "setting": "[4]; clone 010310R1 (clone group 4)", "value": 52.9, "unit": "%"}, {"measurement": "Inhibition by Puromycin Derivative 1 (%)", "setting": "[4]; clone 010310R4 (clone group 2)", "value": 52.9, "unit": "%"}, {"measurement": "Inhibition by Puromycin Derivative 1 (%)", "setting": "[4]; clone 010322 (clone group 1)", "value": 77, "unit": "%"}, {"measurement": "Inhibition by Puromycin Derivative 1 (%)", "setting": "[4]; clone 010326R1 (clone group 5)", "value": 50.4, "unit": "%"}, {"measurement": "Inhibition by Puromycin Derivative 1 (%)", "setting": "[4]; clone 010326R5 (clone group 3)", "value": 50.4, "unit": "%"}, {"measurement": "Inhibition by Puromycin Derivative 1 (%)", "setting": "[4]; clone 010326R6 (clone group 1)", "value": 50.4, "unit": "%"}, {"measurement": "Inhibition by Puromycin Derivative 1 (%)", "setting": "[4]; clone 010328R2 (clone group 5)", "value": 77, "unit": "%"}, {"measurement": "Inhibition by Puromycin Derivative 1 (%)", "setting": "[4]; clone 010328R4 (clone group 1)", "value": 61, "unit": "%"}, {"measurement": "Inhibition by Puromycin Derivative 1 (%)", "setting": "[4]; clone 040322 (clone group 6)", "value": 54, "unit": "%"}, {"measurement": "Inhibition by Puromycin Derivative 1 (%)", "setting": "[4]; clone 040329 (clone group 7)", "value": 54, "unit": "%"}, {"measurement": "Inhibition by Puromycin Derivative 1 (%)", "setting": "[4]; clone 040338 (clone group 8)", "value": 56, "unit": "%"}, {"measurement": "Inhibition by Puromycin Derivative 1 (%)", "setting": "[4]; clone 080337 (clone group 9)", "value": 51, "unit": "%"}]}
{"compound": "phenylalanylphenylalanyl [dipeptide 4]", "values": [{"measurement": "Suppression efficiency in different S-30 systems, having modified ribosomes (%)", "setting": "[1]; clone group 1", "value": "~4", "unit": "%"}]}
